Consider 1 molecule from US20250223559A1, “AXIOLOID: A STEM CELL-BASED MODEL OF HUMAN AXIAL DEVELOPMENT” (KYOTO UNIVERSITY, priority 2022, published 2025).

The subject of assay [1] is segmentation clock gene HES7. Nature of the assay: HES7:Luciferase reporter oscillation of the segmentation clock in Axioloids. Type of assay: cell-based, human. The note with it: RA, RAL or ROL, with or without MG. On the procedure: Bioluminescence live-cell imaging of HES7-reporter (201B7Luc) iPSC-derived human Axioloids (201B7Luc) was performed and signal was quantified as previously described^55,56 Briefly, one day before imaging glass-bottom 96-well plates (Iwaki) were coated with 50 μl of 1.5% PVA (Nacalai), the PVA solution was hereby aspirated and the plates dried on top of a clean bench overnight at room temperature. Prior to imaging, Axioloids were set onto coated glass-bottom 96-well plates with 80 μl of AK02N-C medium containing […] D-Luciferin and 10% Matrigel. Small molecule agonists and antagonists of signaling pathways were added according to the experimental setup. Bioluminescence signals of Axioloids induced from the HES7-reporter cell line were recorded on IX83 (Olympus) equipped with iXon EMCCD camera (Andor) cultured in a stage top incubator (Tokai Hit). Signal was acquired with 2×2 binning and 1 min exposure. Cosmic rays were removed from the raw images by applying spike noise filter, then smoothed by median filter. Temporal fluctuation of signal baseline was corrected by background subtraction. Kymograph was generated by averaging luminescence intensity values along the lateral axis of Axioloids and resulted values were aligned in temporal order.
Periodicity of HES7 oscillation was quantified from time-series luminescence intensity data obtained from either live imaging or Kronos HT (Atto) measurements using HES7 reporter-derived Axioloids. For Kronos HT based oscillation measurements, Axioloids were transferred at 72 h (48 h after aggregation) into 24-well film-bottom plates (Eppendorf) covered in 400 μl of embedding medium (+/−MG) supplemented with D-Luciferin (100 μM) (bioWORLD). Axioloid containing culture plates were cultured at 37° C. and 5% CO2. Oscillations were measured for 48 hours and each well was measured for 10 seconds with 8 min intervals. Intensity values were processed using Matlab. Temporal trend was obtained by subtracting moving average (window size of 10 h), and the detrended signal was smoothed by Savitzky-Golay filter (window size of 3 h). Instantaneous oscillation phase was calculated by applying Hilbert transform, then peak detection was performed on cosine values of instantaneous oscillation phase. Peak-to-peak period was then quantified on each n-th oscillation.
On the technique in general: A reporter such as luciferase makes a cellular process visible.

A further assay deals with human Axioloids. The experiment in a line: Immunofluorescence and HCR in situ expression patterns in Axioloids. Type of assay: cell-based. On the procedure:
Human Axioloid samples were washed twice with 0.1% BSA (Nacalai) in PBS (Takara), fixed with 4% paraformaldehyde (PFA) for 20 minutes at room temperature and then washed again twice with 0.1% BSA in PBS. Samples were permeabilized in 0.2% Triton X-100 (Nacalai) in PBS for 15 minutes at room temperature and blocked in 5% BSA in PBS for 1 hour at room temperature. Axioloid samples were stained with primary antibodies diluted in 0.5% BSA in PBST (1% Tween-20 (Nacalai) in PBS) for overnight (12-16 hours) at 4° C. Primary antibodies used in this study were: goat anti-TBXT (TBXT) (1:500, R&D Systems), mouse anti-Fibronectin (1:10, DSHB), mouse anti-Laminin (γ1) (1:10, DSHB), rabbit anti-MEOX1 (1:500, ATLAS), mouse anti-N-Cadherin (1:200, BD Biosciences), mouse anti-PKCζ (1:100, Santa Cruz), rabbit anti-SOX2 (1:400, Cell Signaling), and goat anti-TBX6 (1:500, R&D Systems). Samples were then washed twice with PBST and stained with secondary antibodies and Alexa Fluor 647 conjugated Phalloidin (Invitrogen) diluted in 0.5% BSA in PBST for 3 hours at room temperature, washed twice with PBST and counterstained with DAPI for 5 min at room temperature. […]

As to `CC1=C(/C=C/C(C)=C/C=C/C(C)=C/C=O)C(C)(C)CCC1` [RAL, all trans-Retinal], the “oscillatory activity including periodicity of HES7” value in assay [1] is reported as “largely no effect”. Moreover, the “expression gradients of FGF8 and WNT3a (HCR)” value in the assay with human Axioloids (MG+RAL) is “still showed clear expression gradients of FGF8 and WNT3a”. In addition, the “protein and gene expression patterns (TBXT, MEOX1, UNCX, TBX18)” value in the assay on human Axioloids (MG-embedded, RA or RAL treated) is reported as “largely unchanged or even improved”.
